Laboratory results reported in patent US6762227B1, “Inhibition of marine biofouling of surfaces” (I-Tech AB, priority 1999, dated 2004).
Like-named read-outs stand apart in the source and are kept apart here.

What was measured:
[1] = test system: Cyprid larvae from Balanus improvisus
Method: Cyprid larvae from Balanus improvisus were transferred to Petri dishes containing seawater from the Swedish west coast and medetomidine in various concentrations (0.1 nM, 1 nM, 10 nM, 100 nM and 1 μM). In addition, for control purposes, cyprid larvae were transferred to a Petri dish containing seawater only. After 11 days the cyprids were counted and classified as either 1) settled (established) on the surface of the Petri dish, 2) swimming, i.e. living, not established, or 3) dead. The results in the table are expressed in percentage of the total number of organisms in each group (=n).
This example corresponds to Example 1 with the exception that medetomidine was replaced by clonidine in the concentrations defined in Table 2 below.

cyprid larvae [2] = settings: cleaned, as Example 3
Method: Petri dishes of hydrophilic polystyrene were filled with a solution of medetomidine in varying concentrations (0 ng/ml 10 ng/ml, 1 μg/ml and 10 μg/ml). Like in Example 1, one Petri dish with no medetomidine was used as control. After a 24 hour incubation period in room temperature the dishes were cleaned thoroughly with seawater. The dishes were then incubated with cyprid larvae in amounts of approximately 20 larvae/dish. Readings were taken under microscope after 7 days, and the larvae were classified as either settled, free-swimming or dead.
Example 3 was repeated, with the difference that Petri dishes of hydrophobic polystyrene were used instead of hydrophilic dishes.

cyprid larvae [3] = settings: for Dead / Settled / Swimming: cleaned, reading after 7 days
Method: Petri dishes of hydrophilic polystyrene were filled with a solution of medetomidine in varying concentrations (0 ng/ml 10 ng/ml, 1 μg/ml and 10 μg/ml). […] After a 24 hour incubation period in room temperature the dishes were cleaned thoroughly with seawater. The dishes were then incubated with cyprid larvae in amounts of approximately 20 larvae/dish. Readings were taken under microscope after 7 days, and the larvae were classified as either settled, free-swimming or dead.

[4] = test system: tube building polychaetes (Hydroides elegans); settings: for Dead / Settled / Swimming: incubated two days
Method: The polychaete larvae were incubated for two days in Petri dishes containing sea water and were then classified as either settled, free swimming or dead, like in Example 1. The water originated from the coast outside Sydney, Australia, and the experiment was carried out in May 1999.

[5] = test system: acorn barnacles (Balanus improvisus); settings: for Number of Balanus improvisus/10 cm^2: acrylate-based paint with 0.02% by weight medetomidine
Method: Medetomidine was added to an acrylate-based paint formula to a concentration of 0.02% by weight (or 170 μg/ml). The paint was then applied on 10 test surfaces dimensioned 10×10 cm^2. The surfaces were allowed to dry at room temperature and were then mounted on racks, which were placed at a depth of about one meter in a bay in the sea offshore from Strömstad, Sweden, and were allowed to remain there during August and September of 1999. After 2, 4 and 8 weeks, respectively, the test surfaces were removed from the sea and the number of acorn barnacles (Balanus improvisus) were counted.

[6] = clonidine 0.027 ng/ml, as Example 1
[7] = clonidine 0.27 ng/ml, as Example 1
[8] = clonidine 2.7 ng/ml, as Example 1
[9] = clonidine 27 ng/ml, as Example 1
[10] = clonidine 270 ng/ml, as Example 1
[11] = hydrophobic polystyrene dish pre-incubated with medetomidine 1 ng/ml
[12] = hydrophobic polystyrene dish pre-incubated with medetomidine 10 ng/ml
[13] = hydrophobic polystyrene dish pre-incubated with medetomidine 1000 ng/ml
[14] = hydrophobic polystyrene dish pre-incubated with medetomidine 10000 ng/ml
[15] = medetomidine 0.1 nM, after 11 days, % of total organisms
[16] = medetomidine 1 nM, after 11 days, % of total organisms
[17] = medetomidine 10 nM, after 11 days, % of total organisms
[18] = medetomidine 100 nM, after 11 days, % of total organisms
[19] = medetomidine 1000 nM, after 11 days, % of total organisms
[20] = hydrophilic polystyrene dish pre-incubated 24 h with medetomidine 1 ng/ml
[21] = hydrophilic polystyrene dish pre-incubated 24 h with medetomidine 10 ng/ml
[22] = hydrophilic polystyrene dish pre-incubated 24 h with medetomidine 1000 ng/ml
[23] = hydrophilic polystyrene dish pre-incubated 24 h with medetomidine 10000 ng/ml

## Clc1cccc(Cl)c1NC1=NCCN1 [clonidine, 2-(2,6-di-chloro-anilino)-2-imidazoline]
[1]; Balanus improvisus, in vivo, 11 days, 0.027 ng/ml
  Dead: 0%
[1]; Balanus improvisus, in vivo, 11 days, 0.27 ng/ml
  Dead: 0%
[1]; Balanus improvisus, in vivo, 11 days, 2.7 ng/ml
  Dead: 1.7%
[1]; Balanus improvisus, in vivo, 11 days, 27 ng/ml
  Dead: 1.5%
[1]; Balanus improvisus, in vivo, 11 days, 270 ng/ml
  Dead: 8.3%
[1]; [6]
  Settled: 36.7%
  Swimming: 65.7%
[1]; [7]
  Settled: 22.3%
  Swimming: 77.7%
[1]; [8]
  Settled: 1.8%
  Swimming: 96.5%
[1]; [9]
  Settled: 0%
  Swimming: 98.5%
[1]; [10]
  Settled: 0%
  Swimming: 91.7%

## Cc1cccc(C(C)c2cnc[nH]2)c1C (racemic) [medetomidine, (±)-4-[1-(2,3-dimethylphenyl)-ethyl]-1H-imidazole-mono-hydrogen chloride]
Cyprid larvae [2]; [11]
  Dead: 0%
  Settled: 63.1%
  Swimming: 36.9%
Cyprid larvae [2]; [12]
  Dead: 2.1%
  Settled: 33.3%
  Swimming: 65%
Cyprid larvae [2]; [13]
  Dead: 0%
  Settled: 0%
  Swimming: 100%
Cyprid larvae [2]; [14]
  Dead: 2.1%
  Settled: 0%
  Swimming: 97.9%
[1]; [15]
  Dead: 0%
  Settled: 52%
  Swimming: 48%
[1]; [16]
  Dead: 0%
  Settled: 1.5%
  Swimming: 98%
[1]; [17]
  Dead: 0%
  Settled: 0%
  Swimming: 100%
[1]; [18]
  Dead: 0%
  Settled: 0%
  Swimming: 100%
[1]; [19]
  Dead: 0%
  Settled: 0%
  Swimming: 100%
[1]; upon increased concentration of medetomidine (0.1 nM to 1 μM)
  number of established larvae: decreased upon increased concentration
[1]; upon increased contents of medetomidine (0.1 nM to 1 μM)
  number of dead cyprids: did not increase
Cyprid larvae [3]; also at very low medetomidine incubation concentrations
  number of settled acorn barnacles: significant reduction
Cyprid larvae [3]; [20]
  Dead: 0%
  Settled: 6.2%
  Swimming: 93.8%
Cyprid larvae [3]; [21]
  Dead: 0%
  Settled: 0%
  Swimming: 100%
Cyprid larvae [3]; [22]
  Dead: 0%
  Settled: 0%
  Swimming: 100%
Cyprid larvae [3]; [23]
  Dead: 0%
  Settled: 0%
  Swimming: 100%
[4]; concentration span of from 0.1 nM to 100 μM
  effect on settling of polychaete larvae: significant inhibiting effect
[4]; medetomidine 0.1 nM
  Dead: 2.3%
  Settled: 9.3%
  Swimming: 88.4%
[4]; medetomidine 1 nM
  Dead: 5.4%
  Settled: 5.4%
  Swimming: 89.2%
[4]; medetomidine 10 nM
  Dead: 4.4%
  Settled: 0%
  Swimming: 95.6%
[4]; medetomidine 100 nM
  Dead: 20%
  Settled: 0%
  Swimming: 80%
[4]; medetomidine 1000 nM
  Dead: 45.7%
  Settled: 0%
  Swimming: 54.3%
[4]; medetomidine 100 000 nM
  Dead: 100%
  Settled: 0%
  Swimming: 0%
[4]; span from 100 nM to 100 μM
  toxic effects on polychaete larvae: toxic effects appear
[5]; 2 weeks in the sea
  Number of Balanus improvisus/10 cm^2: 4.63 ± 1.04 /10 cm^2
[5]; 4 weeks in the sea
  Number of Balanus improvisus/10 cm^2: 5.6 ± 1.4 /10 cm^2
[5]; 8 weeks in the sea
  Number of Balanus improvisus/10 cm^2: 148.1 ± 16.24 /10 cm^2
[5]; paint with 0.02% by weight medetomidine, 2, 4 and 8 weeks
  number of acorn barnacles on the test surfaces compared with the control surfaces: significant reduction
